The record followed here is ChEMBL document CHEMBL2203016, “Purpuroines A-J, halogenated alkaloids from the sponge Iotrochota purpurea with antibiotic activity and regulation of tyrosine kinases” (Bioorg Med Chem, 2012).

Assay [1] has as its system Candida albicans. Put plainly: Antimicrobial activity against Candida albicans at 20 ug/ml by microplate reader analysis. Type of assay: functional, organism-based.
The subject of assay [2] is Staphylococcus aureus. Put plainly: Antimicrobial activity against Staphylococcus aureus by microplate reader analysis. Type of assay: functional, organism-based.
Assay [3] deals with Aspergillus flavus. Put plainly: Antimicrobial activity against Aspergillus flavus by microplate reader analysis. It is filed as functional, organism-based.
Assay [4] has as its system Aspergillus fumigatus. Put plainly: Antimicrobial activity against Aspergillus fumigatus at 20 ug/ml by microplate reader analysis. It is filed as functional, organism-based.
Assay [5] concerns Saccharomyces cerevisiae. Put plainly: Antimicrobial activity against Saccharomyces cerevisiae by microplate reader analysis. It is filed as functional, organism-based.
The subject of assay [6] is Streptococcus pneumoniae. Put plainly: Antimicrobial activity against Streptococcus pneumoniae at 20 ug/ml by microplate reader analysis. Type of assay: functional, organism-based.
Assay [7] deals with Pseudomonas aeruginosa. Put plainly: Antimicrobial activity against Pseudomonas aeruginosa by microplate reader analysis. Type of assay: functional, organism-based.
Assay [8] relates to Escherichia coli. Put plainly: Antimicrobial activity against Escherichia coli by microplate reader analysis. It is filed as functional, organism-based.
The test system of assay [9] is Fusarium oxysporum. Put plainly: Antimicrobial activity against Fusarium oxysporum by microplate reader analysis. It is filed as functional, organism-based.
Assay [10] deals with Streptococcus pneumoniae. Put plainly: Antimicrobial activity against Streptococcus pneumoniae by microplate reader analysis. It is filed as functional, organism-based.
For assay [11], the target named is Serine/threonine-protein kinase PLK1 (Homo sapiens, UniProt P53350). Put plainly: Inhibition of PLK1.
Sequence of Serine/threonine-protein kinase PLK1 (P53350 whole entry): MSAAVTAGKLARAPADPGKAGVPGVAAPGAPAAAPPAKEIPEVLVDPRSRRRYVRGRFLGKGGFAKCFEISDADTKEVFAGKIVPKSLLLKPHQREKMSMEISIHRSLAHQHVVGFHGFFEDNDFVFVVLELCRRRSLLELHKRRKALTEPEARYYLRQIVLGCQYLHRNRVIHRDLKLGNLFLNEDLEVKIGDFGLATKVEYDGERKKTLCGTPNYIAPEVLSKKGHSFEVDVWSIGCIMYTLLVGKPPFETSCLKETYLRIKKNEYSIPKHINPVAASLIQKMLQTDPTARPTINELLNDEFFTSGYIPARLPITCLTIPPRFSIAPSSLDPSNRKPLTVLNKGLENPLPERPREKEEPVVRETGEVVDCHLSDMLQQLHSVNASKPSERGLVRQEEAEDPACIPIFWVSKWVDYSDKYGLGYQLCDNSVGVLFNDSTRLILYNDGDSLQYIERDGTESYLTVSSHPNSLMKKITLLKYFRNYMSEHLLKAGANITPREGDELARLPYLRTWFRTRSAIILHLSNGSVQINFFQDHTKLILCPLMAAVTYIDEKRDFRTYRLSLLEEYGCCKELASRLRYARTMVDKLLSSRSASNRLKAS
Assay [12] deals with Candida albicans. Put plainly: Antimicrobial activity against Candida albicans by microplate reader analysis. Type of assay: functional, organism-based.
Assay [13] has as its system Aspergillus fumigatus. Put plainly: Antimicrobial activity against Aspergillus fumigatus by microplate reader analysis. It is filed as functional, organism-based.
The target in assay [14] is Cyclin-dependent kinase 2 (Homo sapiens, UniProt P24941). Put plainly: Inhibition of CDK2.
Assay [15] concerns the target Tyrosine-protein kinase Lck (Homo sapiens, UniProt P06239). Put plainly: Inhibition of LCK.
Setting [16] is: Streptococcus pneumoniae, read-out: IC50.
Where [17] appears, read: Candida albicans, read-out: IC50.
The mark [18] stands for this setting: Aspergillus fumigatus, read-out: IC50.

Values after ≈ are worked out from the molar mass of the structure shown. Active and inactive are the calls of the source. No cut-off for these calls is given here.

Sequence of Tyrosine-protein kinase Lck (P06239 whole entry): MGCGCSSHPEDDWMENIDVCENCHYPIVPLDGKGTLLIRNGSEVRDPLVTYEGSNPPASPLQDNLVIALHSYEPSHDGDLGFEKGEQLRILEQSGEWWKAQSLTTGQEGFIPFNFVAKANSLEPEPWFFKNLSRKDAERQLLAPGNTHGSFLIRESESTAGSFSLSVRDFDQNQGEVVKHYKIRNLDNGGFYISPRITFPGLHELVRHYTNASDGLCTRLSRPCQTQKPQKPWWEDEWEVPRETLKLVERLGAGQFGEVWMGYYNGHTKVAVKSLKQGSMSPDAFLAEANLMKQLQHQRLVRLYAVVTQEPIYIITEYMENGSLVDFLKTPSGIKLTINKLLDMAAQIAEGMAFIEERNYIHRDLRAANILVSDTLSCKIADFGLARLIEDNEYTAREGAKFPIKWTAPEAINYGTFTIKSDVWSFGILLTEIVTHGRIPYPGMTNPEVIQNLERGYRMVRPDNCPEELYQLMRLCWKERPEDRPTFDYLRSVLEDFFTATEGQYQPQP

As to `COC(=O)[C@@H](Cc1c[nH]c2cc(Br)ccc12)[N+](C)(C)C` (racemic), the result in assay [1], in assay [4] and in [6] was inactive. Also, the outcome in [2], in assay [3], in assay [5], in assay [7], in assay [8] and in assay [9] was Active.
In the case of `CC1(C)S[C@@H]2[C@H](NC(=O)[C@H](N)c3ccccc3)C(=O)N2[C@H]1C(=O)O` [AMPICILLIN], the IC50 in [10] (setting [16]) was found to be 0.38 µg/mL (≈ 1.09 µM).
For the molecule `C[N+](C)(C)[C@H](Cc1cc(Br)c(O)c(I)c1)C(=O)[O-]` [PURPUROINE I], the outcome in [1], in assay [4] and in assay [6] was inactive. Also, the IC50 was > 117 µM in [11]; “Not Active” in assay [12]; “Not Active” in [13]; > 117 µM in assay [14]; > 117 µM in assay [15]; 18.1 µg/mL (≈ 42.2 µM) in assay [10] (setting [16]).
For the molecule `C[C@@H]1[C@H](O)[C@@H](C)/C=C/C=C/C=C/C=C/C=C/C=C/C=C/[C@H](O[C@@H]2O[C@H](C)[C@@H](O)[C@H](N)[C@@H]2O)C[C@@H]2O[C@](O)(C[C@@H](O)C[C@@H](O)[C@H](O)CC[C@@H](O)C[C@@H](O)CC(=O)O[C@H]1C)C[C@H](O)[C@H]2C(=O)O` [AMPHOTERICIN B], the IC50 is 4.26 µg/mL (≈ 4.61 µM) in assay [12] (setting [17]) and 3.27 µg/mL (≈ 3.54 µM) in [13] (setting [18]).
In the case of `C[N+](C)(C)[C@H](CCOc1c(Br)cc(Br)cc1Br)C(=O)[O-]` [PURPUROINE A], the IC50 was > 105 µM in assay [11]; “Not Active” in assay [12]; 28.6 µg/mL (≈ 60.3 µM) in assay [13] (setting [18]); > 105 µM in assay [14]; 4.96 µM in assay [15]; “Not Active” in assay [10].
Regarding `COc1c(Br)cc(C[C@H](C(=O)[O-])[N+](C)(C)C)cc1I` [PURPUROINE H], the IC50 in assay [11] was 17.1 µM; in assay [14], > 113 µM; in [15], 17.9 µM.
Regarding `C[N+](C)(C)[C@H](CCOc1c(Cl)cc(Br)cc1Br)C(=O)[O-]`, the outcome in [1], in assay [4] and in assay [6] was inactive. In addition, the outcome in [2], in [3], in [5], in assay [7], in assay [8] and in assay [9] was Active.
In the case of `C[N+](C)(C)[C@H](CCOc1c(Br)cc(Br)cc1I)C(=O)[O-]` [PURPUROINE D], the IC50 was 2.78 µM in assay [11]; 19 µg/mL (≈ 36.5 µM) in assay [12] (setting [17]); 25.6 µg/mL (≈ 49.1 µM) in assay [13] (setting [18]); > 96 µM in [14]; 1.8 µM in assay [15]; “Not Active” in assay [10].
Consider `C[N+](C)(C)[C@H](Cc1cc(I)c(O)c(I)c1)C(=O)[O-]` [PURPUROINE G], for which the outcome in assay [1], in [4] and in [6] was inactive. For the same molecule, the outcome in assay [2], in assay [3], in assay [5], in [7], in assay [8] and in [9] was Active. Moreover, the values for the IC50 in assay [11], in assay [14] and in [15] were 21.2 µM, > 105 µM and 25 µM, respectively.
For `C[N+](C)(C)[C@H](CCOc1ccc(Br)cc1Br)C(=O)[O-]` [PURPUROINE B], the result in assay [1], in assay [4] and in assay [6] was inactive. Further, the result in assay [2], in assay [3], in [5], in assay [7], in assay [8] and in assay [9] was Active. The IC50 in [11] is > 127 µM; in [14], > 127 µM; in assay [15], 32.3 µM.
For `COc1c(I)cc(C[C@H](C(=O)[O-])[N+](C)(C)C)cc1I` [PURPUROINE F], the outcome in assay [1], in [4] and in assay [6] was inactive. The result in assay [2], in [3], in assay [5], in assay [7], in [8] and in assay [9] was Active. For the same molecule, the figures for the IC50 in [11], in assay [14] and in assay [15] were 9.24 µM, > 102 µM and 14.7 µM, respectively.
Take `C[N+](C)(C)[C@H](CCOc1c(Cl)cc(Br)cc1Cl)C(=O)[O-]` [PURPUROINE C]: the IC50 in [11] was 17.8 µM; in assay [12], “Not Active”; in [13] (setting [18]) it was 26.1 µg/mL (≈ 67.7 µM); in assay [14], > 130 µM; in [15] it was 11.7 µM; in assay [10] it was “Not Active”.

Usually IC50 stands for the concentration that gives 50% inhibition.
